Values of other authors in US20230346899A1 (priority 2022, published 2023).

System: SARS-CoV-2
Conditions: moderate COVID-19 patients

| Substance | Median time to elimination of SARS-CoV-2 confirmed by RT-PCR, days (IQR) | Median time to improvement in clinical status by 2 points on the WHO-OSCI, days (IQR) | Median time to normalization of CRP concentration (≤10 mg/L) in patient's blood, days (IQR) | Median time to normalization of D-dimer concentration (<253 ng/mL) in patient's blood, days (IQR) | Median time to normalization of body temperature (<37° C.), days (IQR) |
| --- | --- | --- | --- | --- | --- |
| aprotinin | 7.5 (6-9) days | 11.0 (6-11) days | 6.0 (6-6) days | 4.5 (3-6) days | 3.0 (2-3) days |
| favipiravir [FVP + SOC)] | 4.5 (4-9) days | 14.0 (11.5-16) days | 14.0 (5.5-14) days | – | 2.0 (1-3) days |
